Data taken from patent publication KR20090133069A, “형질전환 성장인자의 활성을 가지는 펩타이드 및 그의 용도” ((주)케어젠, priority 2009, dated 2009).

Legend:
NIH-3T3 세포 = assay: Peptide stability: storage at 40℃ in 50 mM Tris-HCl (pH 8.0), remaining activity by MTT assay; assay type: physicochemical; details: 50 mM Tris-HCl pH 8.0, sampled at days 0-100, peptide 10 ㎍/ml, TGF-β1 1 ㎍/ml, Fig. 3
타이로시나아제 = assay: Tyrosinase activity (L-DOPA, 405 nm) in lysate of B16F10 cells treated with α-MSH; assay type: cell-based, mouse; details: peptide 1 and 10 μg/ml, 4 days, versus α-MSH alone, Fig. 6
NIH3T3 세포 = assay: Cytotoxicity test, SRB colorimetry, NIH3T3 cells; assay type: cell-based; details: 10 ng/ml to 100 μg/ml, 72 h, Fig. 11
프로콜라겐 = assay: Procollagen production in NIH3T3 fibroblasts (ELISA); assay type: cell-based; details: peptide 1 and 10 μg/ml, 72 h, Fig. 9
HaCat 세포 = assay: Cytotoxicity test, SRB colorimetry, HaCat cells; assay type: cell-based; details: 10 ng/ml to 100 μg/ml, 72 h, Fig. 11
[1] = test system: TRP1(tyrosinase-related protein-1); assay: RT-PCR of melanogenesis marker TRP1 in B16F10 cells treated with α-MSH; assay type: cell-based, mouse; details: α-MSH plus peptide 10 μg/ml; 4 days; Fig. 8
C57BL/6 마우스의 멜라노사이트 = assay: Melanin production in melanocytes induced with α-MSH; assay type: cell-based, mouse; details: α-MSH 200 μg/ml; peptide 10 μg/ml; 3 days; Fig. 4
TRP2 = assay: RT-PCR of melanogenesis marker TRP2 in B16F10 cells treated with α-MSH; assay type: cell-based, mouse; details: α-MSH plus peptide 10 μg/ml; 4 days; Fig. 8
B16F10 세포주 = assay: Cytotoxicity test, SRB colorimetry, B16F10 cells; assay type: cell-based; details: 10 ng/ml to 100 μg/ml, 72 h, Fig. 11
B16F10 세포 = assay: Microscopic observation of melanosomes in B16F10 cells treated with α-MSH; assay type: cell-based, mouse; details: α-MSH 200 μg/ml; peptide 10 μg/ml; 4 days; Fig. 7
피브로넥틴 = assay: Fibronectin production in NIH3T3 fibroblasts (ELISA); assay type: cell-based; details: peptide 1 and 10 μg/ml, 72 h, Fig. 10
[2] = test system: MITF(microphthalmia-associated transcription factor); assay: RT-PCR of melanogenesis marker MITF in B16F10 cells treated with α-MSH; assay type: cell-based, mouse; details: α-MSH plus peptide 10 μg/ml; 4 days; Fig. 8

Substance	remaining activity over storage time (stability) (NIH-3T3 세포)	decrease of tyrosinase activity (타이로시나아제)	cell number / cytotoxicity (NIH3T3 세포)	procollagen production (프로콜라겐)	cell number / cytotoxicity (HaCat 세포)	TRP1 expression (RT-PCR) [1]	melanin production (visual) (C57BL/6 마우스의 멜라노사이트)	TRP2 expression (RT-PCR) (TRP2)	cell number / cytotoxicity (B16F10 세포주)	melanosomes induced by α-MSH (microscopy) (B16F10 세포)	fibronectin production (피브로넥틴)	MITF expression (RT-PCR) [2]
재조합 TGF-β1: 대장균으로부터 생산된 재조합 TGF-β1(Sigma), control in the stability test	활성도가 급격히 감소됨											
NH2-Gly-Arg-Gly-Asp-Tyr-Leu-Arg-Ser-Ala-Asp-Thr-OH (H-GRGDYLRSADT-OH) [서열2 펩타이드]	활성도가 오랫동안 지속됨	≥ 30%	세포 수의 감소는 전혀 관찰 되지 않았으며	우수한 프로콜라겐 생성 촉진능	세포 수의 감소는 전혀 관찰 되지 않았으며	발현을 억제한다	α-MSH를 처리하지 않았을 때와 유사한 멜라닌 생성	발현을 억제한다	세포 수의 감소는 전혀 관찰 되지 않았으며	사라지는	우수한 피브로넥틴 생성 촉진능	발현을 억제한다
